Source: PMC8534029 (Cells, 2021)

Target: T1, human DOR (T7-tagged, HEK293 cells) (Homo sapiens, UniProt P41143)
T1 construct: gene OPRD1
Experiment: CellKey impedance assay, agonist
Format: cell-based
Conditions: morphine up to 10^−5 M, no OT, partial agonist, EC50 n.d.

T1 sequence (P41143 whole entry, looked up): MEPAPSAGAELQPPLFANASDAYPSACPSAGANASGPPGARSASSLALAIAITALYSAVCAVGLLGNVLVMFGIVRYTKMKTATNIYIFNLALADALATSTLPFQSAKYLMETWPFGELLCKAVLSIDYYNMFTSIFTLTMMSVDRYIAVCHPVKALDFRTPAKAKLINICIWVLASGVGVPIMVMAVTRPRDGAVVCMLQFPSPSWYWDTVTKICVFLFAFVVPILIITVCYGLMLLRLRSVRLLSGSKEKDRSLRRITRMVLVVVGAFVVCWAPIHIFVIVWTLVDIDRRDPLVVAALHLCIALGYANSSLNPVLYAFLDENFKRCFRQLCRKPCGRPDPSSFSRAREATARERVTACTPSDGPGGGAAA

CN1CC[C@]23c4c5ccc(O)c4O[C@H]2[C@@H](O)C=C[C@H]3[C@H]1C5 [morphine]
maximum response (% of SNC80 Emax): 50.6 ± 7.01%
